Source: patent US7754228B2, “Cytotoxic T-cell epitopes from Chlamydia” (Novartis Vaccines and Diagnostics, Srl, priority 2002, dated 2010)
“Also recorded” adds a separate entry of the source. Read-outs that look alike come from different tables or passages of the source.

System: HLA A2
Type: binding, human
Settings: for binding to HLA A2 (in words): in vitro binding assay
[1] = 10 μM peptide, RMA-S/A2 cells, peptide and only anti-mouse secondary antibody, FACS mean
[2] = 10 μM peptide, RMA-S/A2 cells, peptide, anti-A2 Mab BB7.2 and secondary antibody, FACS mean
[3] = 100 μM peptide, RMA-S/A2 cells, peptide and only anti-mouse secondary antibody, FACS mean
[4] = 100 μM peptide, RMA-S/A2 cells, peptide, anti-A2 Mab BB7.2 and secondary antibody, FACS mean
[5] = 1 μM peptide, RMA-S/A2 cells, peptide and only anti-mouse secondary antibody, FACS mean
[6] = 1 μM peptide, RMA-S/A2 cells, peptide, anti-A2 Mab BB7.2 and secondary antibody, FACS mean

Row | Sequence | High - B | Δ Mean | Mean 1 [1] | Mean 2 [2] | binding to HLA A2 (in words) (RMA-S/A2 cells) | Mean 1 [3] | Mean 2 [4] | Mean 1 [5] | Mean 2 [6] | Mean 1 | Mean 2
1 | WLFDLRFSV (listed as Chlamydia pneumoniae) [CH22] | 73 | 227 | 163 | 390 | bind to HLA A2 |  |  |  |  |  | 
2 | ALWKENQAL (listed as Chlamydia pneumoniae) [CH54] | 91 | 251 |  |  | bind to HLA A2; also recorded: positive in the binding assay | 140 |  |  |  |  | 
3 | LLLTLGYAV (listed as Chlamydia pneumoniae) [CH19] | 0 | 240 |  |  | do not seem to bind | 196 | 436 |  |  |  | 
4 | NLAGGILSV (listed as Chlamydia pneumoniae) [CH56] | 80 | 240 |  |  | bind to HLA A2; also recorded: positive in the binding assay | 143 | 383 |  |  |  | 
5 | LLMLAISLV [CH33] | 0 | 154 |  |  | do not seem to bind |  |  | 164 | 318 |  | 
6 | TLWGSFVDV (listed as Chlamydia pneumoniae) [CH21] | 121 | 275 |  |  | bind to HLA A2 | 165 | 440 |  |  |  | 
7 | YLIVFVLTI [CH59] | −37 | 123 |  |  |  |  |  |  |  | 150 | 273
8 | KMSHFQQAL [CH49] | 23 | 183 |  |  |  | 134 | 317 |  |  |  | 
9 | SLCAQSSYV (listed as Chlamydia pneumoniae) [CH50] | 91 | 251 |  |  | bind to HLA A2; also recorded: positive in the binding assay | 130 | 381 |  |  |  | 
10 | SLLEEHPVV (listed as Chlamydia pneumoniae) [CH52] | 89 | 249 |  |  | bind to HLA A2; also recorded: positive in the binding assay | 147 | 396 |  |  |  | 
11 | SILELLQFV [CH5] | 71 | 298 | 179 | 477 | bind to HLA A2 |  |  |  |  |  | 
12 | NLAEQVTAL [CH43] |  | 286 |  |  | bind to HLA A2; also recorded: positive in the binding assay | 153 | 439 |  |  |  | 
13 | YLTSYSPYV (listed as Chlamydia pneumoniae) [CH15] | 76 | 322 |  |  | bind to HLA A2 | 235 | 557 |  |  |  | 
14 | QLLDEGKEL [CH1] | 37 | 283 |  |  | bind to HLA A2 | 206 | 489 |  |  |  | 
15 | NLSISVFLL [CH46] | 12 | 172 |  |  |  | 131 | 303 |  |  |  | 
16 | YLLDFRWPL [CH37] | 84 | 238 | 164 | 402 | bind to HLA A2 |  |  |  |  |  | 
17 | KLSEQLEAL [CH41] | 101 | 261 |  |  | bind to HLA A2; also recorded: positive in the binding assay | 162 | 423 |  |  |  | 
18 | NLWSHYTDL (listed as Chlamydia pneumoniae) [CH53] | 48 | 209 |  |  | bind to HLA A2 | 141 | 350 |  |  |  | 
19 | KLLKDHFDL (listed as Chlamydia pneumoniae) [CH34] | 81 | 235 |  |  | bind to HLA A2 | 155 | 390 |  |  |  | 

Row | Sequence | High - B | Δ Mean | Mean 1 [1] | Mean 2 [2] | binding to HLA A2 (in words) (RMA-S/A2 cells) | Mean 1 [3] | Mean 2 [4] | Mean 1 [5] | Mean 2 [6] | Mean 1 | Mean 2
20 | FLQRGESFV [CH30] | 89 | 243 |  |  | bind to HLA A2 | 155 | 398 |  |  |  | 
21 | QLLESLAPL [CH4] | 58 | 304 |  |  | bind to HLA A2 | 212 | 516 |  |  |  | 
22 | WLVFFNPFV [CH12] | 0 | 211 |  |  | do not seem to bind |  |  | 204 | 415 |  | 
23 | ALWGHNVLL (listed as Chlamydia pneumoniae) [CH55] | 98 | 258 |  |  | bind to HLA A2; also recorded: positive in the binding assay | 153 | 411 |  |  |  | 
24 | IALLVIFFV [CH18] | 0 | 230 | 198 | 428 | do not seem to bind |  |  |  |  |  | 
25 | ALMLLNNYV (listed as Chlamydia pneumoniae) [CH20] | 138 | 384 |  |  | bind to HLA A2 | 194 | 578 |  |  |  | 
26 | WMMGVVLMI [CH45] | 51 | 211 | 147 | 358 | bind to HLA A2 |  |  |  |  |  | 
27 | NLSRQAFFA (listed as Chlamydia pneumoniae) [CH51] | 19 | 179 |  |  |  | 132 | 311 |  |  |  | 
28 | ILSFLPWLV [CH35] | 86 | 240 | 171 | 411 | bind to HLA A2 |  |  |  |  |  | 
29 | VLFLLIRSV [CH61] | −37 | 123 |  |  |  |  |  | 135 | 258 |  | 
30 | LIQETLLFV [CH24] | 75 | 229 |  |  | bind to HLA A2 | 165 | 394 |  |  |  | 
31 | LLLIFNNYL [CH36] | −16 | 138 |  |  | do not seem to bind |  |  | 163 | 301 |  | 
32 | VMLIFEKKV [CH14] | 12 | 258 |  |  | do not seem to bind | 197 | 455 |  |  |  | 
33 | NLLKRWQFV [CH38] | 73 | 227 |  |  | bind to HLA A2 | 170 | 397 |  |  |  | 
34 | VMLFIGLGV [CH60] | −27 | 133 | 148 | 281 |  |  |  |  |  |  | 
35 | KLWEWLGYL [CH32] | 63 | 217 | 161 | 378 | bind to HLA A2 |  |  |  |  |  | 
36 | WLLRDDWLL [CH31] | 89 | 243 |  |  | bind to HLA A2 | 165 | 408 |  |  |  | 
37 | KVLLGQEWV [CH42] | 40 | 200 |  |  | bind to HLA A2 | 136 | 336 |  |  |  | 
